# Experimental data: patent US8680133B2, “Alkyl indole-3-carbinol-derived antitumor agents” (The Ohio State University Research Foundation, priority 2009, dated 2014)
# What was measured:
# [1] = system: CAKI-1; assay: NCI60 screening, Renal Cancer, CAKI-1; format: cell-based, human
# [2] = system: NCI-H226; assay: NCI60 screening, Non-Small Cell Lung Cancer, NCI-H226; format: cell-based, human
# [3] = system: NCI-H23; assay: NCI60 screening, Non-Small Cell Lung Cancer, NCI-H23; format: cell-based, human
# [4] = system: RPMl-8226; assay: NCI60 screening, Leukemia, RPMl-8226; format: cell-based, human
# [5] = system: PC-3 xenograft tumor; assay: PC-3 xenograft tumor growth in nude mice, 450 ppm in the diet; format: in vivo; conditions: 450 ppm in AIN-76A rodent diet, vs control diet, P<0.05
# Description: FIG. 3 provides a graph showing the in vivo efficacy of dietary OSU-A9M at 450 ppm in a rodent diet in suppressing PC-3 xenograft tumor growth in nude mice.
# (§1) Given the increased potency of OSU-A9M compared to the other lead derivatives, an experimental diet was formulated. An AIN-76A rodent diet (American Institute of Nutrition; including primarily casein, sucrose, and corn starch) containing 450 ppm OSU-A9M was made to deliver approximately 50 mg/kg of drug per day to each mouse estimated by food consumption and body weight measurements.
# [6] = system: 786-0; assay: NCI60 screening, Renal Cancer, 786-0; format: cell-based, human
# [7] = system: NCI-H522; assay: NCI60 screening, Non-Small Cell Lung Cancer, NCI-H522; format: cell-based, human
# [8] = system: K-562; assay: NCI60 screening, Leukemia, K-562; format: cell-based, human
# [9] = system: SF-268; assay: NCI60 screening, CNS Cancer, SF-268; format: cell-based, human
# [10] = system: CCRF-CEM; assay: NCI60 screening, Leukemia, CCRF-CEM; format: cell-based, human
# [11] = system: DU-145; assay: NCI60 screening, Prostate Cancer, DU-145; format: cell-based, human
# [12] = Body weight of PC-3 xenograft mice receiving the experimental diet; format: in vivo, nude mice; conditions: 450 ppm in diet, compared to controls
# Description: as §1
# [13] = system: RXF 393; assay: NCI60 screening, Renal Cancer, RXF 393; format: cell-based, human
# [14] = system: UACC-257; assay: NCI60 screening, Melanoma, UACC-257; format: cell-based, human
# [15] = system: HT29; assay: NCI60 screening, Colon Cancer, HT29; format: cell-based, human
# [16] = system: NCI-H322M; assay: NCI60 screening, Non-Small Cell Lung Cancer, NCI-H322M; format: cell-based, human
# [17] = system: HOP-92; assay: NCI60 screening, Non-Small Cell Lung Cancer, HOP-92; format: cell-based, human
# [18] = system: SW-620; assay: NCI60 screening, Colon Cancer, SW-620; format: cell-based, human
# [19] = Homo sapiens, read-out: LC50 (the source's name)
structure (smiles),measurement,setting,value
"Cc1ccc2c(c1)c(CO)cn2S(=O)(=O)c1ccc(Cl)c([N+](=O)[O-])c1 [OSU-A9M, [1-(4-chloro-3-nitro-benzenesulfonyl)-5-methyl-1H-indol-3-yl]-methanol]",TGI,[1],2.90E−6
same,GI50,[1]; Homo sapiens,1480 nM
same,CC50,[1]; [19],5.7 µM
same,Percent Growth,[1]; Log10 Concentration −4.0,−95%
same,Percent Growth,[1]; Log10 Concentration −5.0,−92%
same,Percent Growth,[1]; Log10 Concentration −6.0,79%
same,Percent Growth,[1]; Log10 Concentration −7.0,95%
same,Percent Growth,[1]; Log10 Concentration −8.0,92%
same,TGI,[2],3.32E−6
same,GI50,[2]; Homo sapiens,953 nM
same,CC50,[2]; [19],17.4 µM
same,Percent Growth,[2]; Log10 Concentration −4.0,−65%
same,Percent Growth,[2]; Log10 Concentration −5.0,−45%
same,Percent Growth,[2]; Log10 Concentration −6.0,49%
same,Percent Growth,[2]; Log10 Concentration −7.0,93%
same,Percent Growth,[2]; Log10 Concentration −8.0,91%
same,TGI,[3],2.89E−6
same,GI50,[3]; Homo sapiens,1530 nM
same,CC50,[3]; [19],5.46 µM
same,Percent Growth,[3]; Log10 Concentration −4.0,−96%
same,Percent Growth,[3]; Log10 Concentration −5.0,−97%
same,Percent Growth,[3]; Log10 Concentration −6.0,83%
same,Percent Growth,[3]; Log10 Concentration −7.0,90%
same,Percent Growth,[3]; Log10 Concentration −8.0,92%
same,TGI,[4],3.80E−6
same,GI50,[4]; Homo sapiens,1580 nM
same,CC50,[4]; [19],9.14 µM
same,Percent Growth,[4]; Log10 Concentration −4.0,−68%
same,Percent Growth,[4]; Log10 Concentration −5.0,−55%
same,Percent Growth,[4]; Log10 Concentration −6.0,76%
same,Percent Growth,[4]; Log10 Concentration −7.0,84%
same,Percent Growth,[4]; Log10 Concentration −8.0,93%
same,Suppression of the growth of PC-3 xenograft tumors,[5],59.6%
same,TGI,[6],3.22E−6
same,GI50,[6]; Homo sapiens,1780 nM
same,CC50,[6]; [19],5.83 µM
same,Percent Growth,[6]; Log10 Concentration −4.0,−100%
same,Percent Growth,[6]; Log10 Concentration −5.0,−95%
same,Percent Growth,[6]; Log10 Concentration −6.0,98%
same,Percent Growth,[6]; Log10 Concentration −7.0,98%
same,Percent Growth,[6]; Log10 Concentration −8.0,96%
same,TGI,[7],3.54E−7
same,GI50,[7]; Homo sapiens,145 nM
same,CC50,[7]; [19],861 nM
same,Percent Growth,[7]; Log10 Concentration −4.0,−96%
same,Percent Growth,[7]; Log10 Concentration −5.0,−96%
same,Percent Growth,[7]; Log10 Concentration −6.0,−58%
same,Percent Growth,[7]; Log10 Concentration −7.0,71%
same,Percent Growth,[7]; Log10 Concentration −8.0,77%
same,TGI,[8],3.03E−6
same,GI50,"[8]; Homo sapiens, K562",1020 nM
same,CC50,"[8]; Homo sapiens, K562, read-out: LC50 (the source's name)",8.96 µM
same,Percent Growth,[8]; Log10 Concentration −4.0,−70%
same,Percent Growth,[8]; Log10 Concentration −5.0,−55%
same,Percent Growth,[8]; Log10 Concentration −6.0,51%
same,Percent Growth,[8]; Log10 Concentration −7.0,106%
same,Percent Growth,[8]; Log10 Concentration −8.0,98%
same,TGI,[9],3.01E−6
same,GI50,[9]; Homo sapiens,1650 nM
same,CC50,[9]; [19],5.49 µM
same,Percent Growth,[9]; Log10 Concentration −4.0,−100%
same,Percent Growth,[9]; Log10 Concentration −5.0,−100%
same,Percent Growth,[9]; Log10 Concentration −6.0,92%
same,Percent Growth,[9]; Log10 Concentration −7.0,89%
same,Percent Growth,[9]; Log10 Concentration −8.0,86%
same,TGI,[10],2.58E−6
same,GI50,[10]; Homo sapiens,300 nM
same,CC50,[10]; [19],87.4 µM
same,Percent Growth,[10]; Log10 Concentration −4.0,−52%
same,Percent Growth,[10]; Log10 Concentration −5.0,−21%
same,Percent Growth,[10]; Log10 Concentration −6.0,14%
same,Percent Growth,[10]; Log10 Concentration −7.0,82%
same,Percent Growth,[10]; Log10 Concentration −8.0,84%
same,TGI,[11],3.04E−6
same,GI50,[11]; Homo sapiens,1670 nM
same,CC50,[11]; [19],5.51 µM
same,Percent Growth,[11]; Log10 Concentration −4.0,−100%
same,Percent Growth,[11]; Log10 Concentration −5.0,−100%
same,Percent Growth,[11]; Log10 Concentration −6.0,93%
same,Percent Growth,[11]; Log10 Concentration −7.0,95%
same,Percent Growth,[11]; Log10 Concentration −8.0,103%
same,Body weights of mice receiving the experimental diet,[12],unchanged compared to controls
same,TGI,[13],4.10E−6
same,GI50,[13]; Homo sapiens,1940 nM
same,CC50,[13]; [19],8.65 µM
same,Percent Growth,[13]; Log10 Concentration −4.0,−85%
same,Percent Growth,[13]; Log10 Concentration −5.0,−60%
same,Percent Growth,[13]; Log10 Concentration −6.0,94%
same,Percent Growth,[13]; Log10 Concentration −7.0,102%
same,Percent Growth,[13]; Log10 Concentration −8.0,101%
same,TGI,[14],3.31E−6
same,GI50,[14]; Homo sapiens,1720 nM
same,CC50,[14]; [19],6.4 µM
same,Percent Growth,[14]; Log10 Concentration −4.0,−96%
same,Percent Growth,[14]; Log10 Concentration −5.0,−84%
same,Percent Growth,[14]; Log10 Concentration −6.0,91%
same,Percent Growth,[14]; Log10 Concentration −7.0,94%
same,Percent Growth,[14]; Log10 Concentration −8.0,96%
same,TGI,[15],1.59E−6
same,GI50,"[15]; Homo sapiens, HT-29",434 nM
same,CC50,"[15]; Homo sapiens, HT-29, read-out: LC50 (the source's name)",3.98 µM
same,Percent Growth,[15]; Log10 Concentration −4.0,−100%
same,Percent Growth,[15]; Log10 Concentration −5.0,−100%
same,Percent Growth,[15]; Log10 Concentration −6.0,25%
same,Percent Growth,[15]; Log10 Concentration −7.0,94%
same,Percent Growth,[15]; Log10 Concentration −8.0,91%
same,TGI,[16],3.10E−6
same,GI50,[16]; Homo sapiens,1680 nM
same,LC50,[16]; Homo sapiens,5.71 µM
same,Percent Growth,[16]; Log10 Concentration −4.0,−93%
same,Percent Growth,[16]; Log10 Concentration −5.0,−96%
same,Percent Growth,[16]; Log10 Concentration −6.0,93%
same,Percent Growth,[16]; Log10 Concentration −7.0,89%
same,Percent Growth,[16]; Log10 Concentration −8.0,91%
same,TGI,[17],2.67E−6
same,GI50,[17]; Homo sapiens,1310 nM
same,CC50,[17]; [19],5.43 µM
same,Percent Growth,[17]; Log10 Concentration −4.0,−97%
same,Percent Growth,[17]; Log10 Concentration −5.0,−93%
same,Percent Growth,[17]; Log10 Concentration −6.0,69%
same,Percent Growth,[17]; Log10 Concentration −7.0,76%
same,Percent Growth,[17]; Log10 Concentration −8.0,92%
same,TGI,[18],2.44E−6
same,GI50,[18]; Homo sapiens,1210 nM
same,CC50,[18]; [19],4.94 µM
same,Percent Growth,[18]; Log10 Concentration −4.0,−100%
same,Percent Growth,[18]; Log10 Concentration −5.0,−100%
same,Percent Growth,[18]; Log10 Concentration −6.0,63%
same,Percent Growth,[18]; Log10 Concentration −7.0,90%
same,Percent Growth,[18]; Log10 Concentration −8.0,96%
